Tested on: Human primary T cells
Experiment: IL-2 ELISA, human primary T cell, anti-CD3+CD28+ (whole cell assay)
Type: cell-based
Conditions: Homo sapiens, T-cell, 24 h, human primary T cells stimulated with anti-CD3 + anti-CD28, 24 hours
In short: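 PBMC-derived T cells, pre-expanded on αCD3/αCD28 with IL-2 and then washed free of IL-2, were preincubated with compound for 1 hr at 37° C (100,000 cells/well). They were then stimulated on 1 μg/ml αCD3 plus 5 μg/ml αCD28 for 24 h, and supernatant IL-2 was measured by ELISA. The counter-assay used 0.5 ng/ml PMA plus 0.1 μM ionomycin instead.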

`CN1C(C)(C)CC(Nc2nc(Nc3cc(F)c(OC4CCN(S(C)(=O)=O)CC4)c(F)c3)ncc2F)CC1(C)C` [III-78, N2-(3,5-difluoro-4-(1-(methylsulfonyl)piperidin-4-yloxy)phenyl)-5-fluoro-N4-(1,2,2,6,6-pentamethylpiperidin-4-yl)pyrimidine-2,4-diamine] and `CN1C(C)(C)CC(Nc2nc(Nc3cc(F)c(OC4CCCN(S(C)(=O)=O)CC4)c(F)c3)ncc2F)CC1(C)C` (stereo not drawn) [III-79, N2-(3,5-difluoro-4-(1-(methylsulfonyl)azepan-4-yloxy)phenyl)-5-fluoro-N4-(1,2,2,6,6-pentamethylpiperidin-4-yl)pyrimidine-2,4-diamine] fall in the same range of IC50: 500 to 1000 nM for the first, 500 to 1000 nM for the second.

`CC1(C)CC(Nc2nc(Nc3cc(F)c(OC4CCCN(S(C)(=O)=O)CC4)c(F)c3)ncc2F)CC(C)(C)N1` (stereo not drawn) [III-80, N2-(3,5-difluoro-4-(1-(methylsulfonyl)azepan-4-yloxy)phenyl)-5-fluoro-N4-(2,2,6,6-tetramethylpiperidin-4-yl)pyrimidine-2,4-diamine] and `CC1(C)CC(Nc2nc(Nc3cc(F)c(OC4CCN(S(C)(=O)=O)CC4)c(F)c3)ncc2F)CC(C)(C)N1` [III-84, N2-(3,5-difluoro-4-(1-(methylsulfonyl)piperidin-4-yloxy)phenyl)-5-fluoro-N4-(2,2,6,6-tetramethylpiperidin-4-yl)pyrimidine-2,4-diamine] cannot be ordered by IC50: greater than 1000 nM for the first, greater than 1000 nM for the second.

`CC(=O)N1CCCC(Oc2c(F)cc(Nc3ncc(F)c(NC4CC(C)(C)N(C)C(C)(C)C4)n3)cc2F)CC1` (stereo not drawn) [III-81, 1-(4-(2,6-difluoro-4-(5-fluoro-4-(1,2,2,6,6-pentamethylpiperidin-4-ylamino)pyrimidin-2-ylamino)phenoxy)azepan-1-yl)ethanone] and `CC(=O)N1CCC(Oc2c(F)cc(Nc3ncc(F)c(NC4CC(C)(C)N(C)C(C)(C)C4)n3)cc2F)CC1` [III-91, 1-(4-(2,6-difluoro-4-(5-fluoro-4-(1,2,2,6,6-pentamethylpiperidin-4-ylamino)pyrimidin-2-ylamino)phenoxy)piperidin-1-yl)ethanone] fall in the same range of IC50: 500 to 1000 nM for the first, 500 to 1000 nM for the second.

`CC(=O)N1CCCC(Oc2c(F)cc(Nc3ncc(F)c(NC4CC(C)(C)NC(C)(C)C4)n3)cc2F)CC1` (stereo not drawn) [III-82, 1-(4-(2,6-difluoro-4-(5-fluoro-4-(2,2,6,6-tetramethylpiperidin-4-ylamino)pyrimidin-2-ylamino)phenoxy)azepan-1-yl)ethanone] and `CC(=O)N1CCC(Oc2c(F)cc(Nc3ncc(F)c(NC4CC(C)(C)NC(C)(C)C4)n3)cc2F)CC1` [III-92, 1-(4-(2,6-difluoro-4-(5-fluoro-4-(2,2,6,6-tetramethylpiperidin-4-ylamino)pyrimidin-2-ylamino)phenoxy)piperidin-1-yl)ethanone] cannot be ordered by IC50: greater than 1000 nM for the first, greater than 1000 nM for the second.

First: CCNC(=O)N1CCCC(Oc2c(F)cc(Nc3ncc(F)c(NC4CC(C)(C)N(C)C(C)(C)C4)n3)cc2F)CC1 (stereo not drawn) [III-83, 4-(2,6-difluoro-4-(5-fluoro-4-(1,2,2,6,6-pentamethylpiperidin-4-ylamino)pyrimidin-2-ylamino)phenoxy)-N-ethylazepane-1-carboxamide]
Second: CCNC(=O)N1CCCC(Oc2c(F)cc(Nc3ncc(F)c(NC4CC(C)(C)NC(C)(C)C4)n3)cc2F)CC1 (stereo not drawn) [III-85, 4-(2,6-difluoro-4-(5-fluoro-4-(2,2,6,6-tetramethylpiperidin-4-ylamino)pyrimidin-2-ylamino)phenoxy)-N-ethylazepane-1-carboxamide]
The IC50 of the first is lower: 500 to 1000 nM for the first, greater than 1000 nM for the second.

`CCNC(=O)N1CCC(Oc2ccc(Nc3ncc(F)c(NC4CC(C)(C)NC(C)(C)C4)n3)cc2OC(F)F)CC1` [III-86, 4-(2-(difluoromethoxy)-4-(5-fluoro-4-(2,2,6,6-tetramethylpiperidin-4-ylamino)pyrimidin-2-ylamino)phenoxy)-N-ethylpiperidine-1-carboxamide] and `CCNC(=O)N1CCCC(Oc2ccc(Nc3ncc(F)c(NC4CC(C)(C)NC(C)(C)C4)n3)cc2OC(F)F)CC1` (stereo not drawn) [III-88, 4-(2-(difluoromethoxy)-4-(5-fluoro-4-(2,2,6,6-tetramethylpiperidin-4-ylamino)pyrimidin-2-ylamino)phenoxy)-N-ethylazepane-1-carboxamide] cannot be ordered by IC50: greater than 1000 nM for the first, greater than 1000 nM for the second.

`CCNC(=O)N1CCCC(Oc2ccc(Nc3ncc(F)c(NC4CC(C)(C)N(C)C(C)(C)C4)n3)cc2OC(F)F)CC1` (stereo not drawn) [III-87, 4-(2-(difluoromethoxy)-4-(5-fluoro-4-(1,2,2,6,6-pentamethylpiperidin-4-ylamino)pyrimidin-2-ylamino)phenoxy)-N-ethylazepane-1-carboxamide] and `CN1C(C)(C)CC(Nc2nc(Nc3ccc(OC4CCCN(S(C)(=O)=O)CC4)c(OC(F)F)c3)ncc2F)CC1(C)C` (stereo not drawn) [III-89, N2-(3-(difluoromethoxy)-4-(1-(methylsulfonyl)azepan-4-yloxy)phenyl)-5-fluoro-N4-(1,2,2,6,6-pentamethylpiperidin-4-yl)pyrimidine-2,4-diamine] fall in the same range of IC50: 250 to 500 nM for the first, 250 to 500 nM for the second.

First: CC1(C)CC(Nc2nc(Nc3ccc(OC4CCCN(S(C)(=O)=O)CC4)c(OC(F)F)c3)ncc2F)CC(C)(C)N1 (stereo not drawn) [III-90, N2-(3-(difluoromethoxy)-4-(1-(methylsulfonyl)azepan-4-yloxy)phenyl)-5-fluoro-N4-(2,2,6,6-tetramethylpiperidin-4-yl)pyrimidine-2,4-diamine]
Second: CC1(C)CC(Nc2nc(Nc3ccc(O[C@H]4CCOC4)c(OC(F)F)c3)ncc2F)CC(C)(C)N1 [III-100, (S)—N2-(3-(difluoromethoxy)-4-(tetrahydrofuran-3-yloxy)phenyl)-5-fluoro-N4-(2,2,6,6-tetramethylpiperidin-4-yl)pyrimidine-2,4-diamine]
The IC50 of the first is higher: 500 to 1000 nM for the first, 250 to 500 nM for the second. The second is the more potent here.

`CC(C)N1CCC(Oc2ccc(Nc3ncc(F)c(NC4CC(C)(C)N(C)C(C)(C)C4)n3)cc2Cl)CC1` [III-95, N2-(3-chloro-4-(1-isopropylpiperidin-4-yloxy)phenyl)-5-fluoro-N4-(1,2,2,6,6-pentamethylpiperidin-4-yl)pyrimidine-2,4-diamine] and `CC(C)N1CCC(Oc2ccc(Nc3ncc(F)c(NC4CC(C)(C)NC(C)(C)C4)n3)cc2Cl)CC1` [III-98, N2-(3-chloro-4-(1-isopropylpiperidin-4-yloxy)phenyl)-5-fluoro-N4-(2,2,6,6-tetramethylpiperidin-4-yl)pyrimidine-2,4-diamine] cannot be ordered by IC50: less than 250 nM for the first, less than 250 nM for the second.

`CC1(C)CC(Nc2nc(Nc3ccc(OC4CCN(CCF)CC4)c(Cl)c3)ncc2F)CC(C)(C)N1` [III-96, N2-(3-chloro-4-(1-(2-fluoroethyl)piperidin-4-yloxy)phenyl)-5-fluoro-N4-(2,2,6,6-tetramethylpiperidin-4-yl)pyrimidine-2,4-diamine] and `CN1C(C)(C)CC(Nc2nc(Nc3ccc(OC4CCN(CCF)CC4)c(Cl)c3)ncc2F)CC1(C)C` [III-97, N2-(3-chloro-4-(1-(2-fluoroethyl)piperidin-4-yloxy)phenyl)-5-fluoro-N4-(1,2,2,6,6-pentamethylpiperidin-4-yl)pyrimidine-2,4-diamine] cannot be ordered by IC50: less than 250 nM for the first, less than 250 nM for the second.

`CN1C(C)(C)CC(Nc2nc(Nc3ccc(O[C@H]4CCOC4)c(OC(F)F)c3)ncc2F)CC1(C)C` [III-99, (S)—N2-(3-(difluoromethoxy)-4-(tetrahydrofuran-3-yloxy)phenyl)-5-fluoro-N4-(1,2,2,6,6-pentamethylpiperidin-4-yl)pyrimidine-2,4-diamine] was tested, and the IC50 was less than 250 nM.

— patent publication US9149475B2, “Protein kinase C inhibitors and uses thereof” (Rigel Pharmaceuticals, Inc., priority 2009, dated 2015)
